Results: article PMC10446182, “Reduced steroid activation of elephant shark GR and MR after inserting four amino acids from the DNA-binding domain of lamprey corticoid receptor-1” (PLOS ONE, 2023)
Read-outs that look alike come from different tables or passages of the source.

Tests used:
Assay in all cases: luciferase reporter transactivation in HEK293 cells
Assay type in all cases: cell-based
[1] = biological target: T1, FLAG-tagged wild-type elephant shark GR (Callorhinchus milii, UniProt A0A4W3H7L4)
T1 construct: full-length, N-terminal FLAG tag, transiently expressed in HEK293 cells
T1 sequence (A0A4W3H7L4 1-704): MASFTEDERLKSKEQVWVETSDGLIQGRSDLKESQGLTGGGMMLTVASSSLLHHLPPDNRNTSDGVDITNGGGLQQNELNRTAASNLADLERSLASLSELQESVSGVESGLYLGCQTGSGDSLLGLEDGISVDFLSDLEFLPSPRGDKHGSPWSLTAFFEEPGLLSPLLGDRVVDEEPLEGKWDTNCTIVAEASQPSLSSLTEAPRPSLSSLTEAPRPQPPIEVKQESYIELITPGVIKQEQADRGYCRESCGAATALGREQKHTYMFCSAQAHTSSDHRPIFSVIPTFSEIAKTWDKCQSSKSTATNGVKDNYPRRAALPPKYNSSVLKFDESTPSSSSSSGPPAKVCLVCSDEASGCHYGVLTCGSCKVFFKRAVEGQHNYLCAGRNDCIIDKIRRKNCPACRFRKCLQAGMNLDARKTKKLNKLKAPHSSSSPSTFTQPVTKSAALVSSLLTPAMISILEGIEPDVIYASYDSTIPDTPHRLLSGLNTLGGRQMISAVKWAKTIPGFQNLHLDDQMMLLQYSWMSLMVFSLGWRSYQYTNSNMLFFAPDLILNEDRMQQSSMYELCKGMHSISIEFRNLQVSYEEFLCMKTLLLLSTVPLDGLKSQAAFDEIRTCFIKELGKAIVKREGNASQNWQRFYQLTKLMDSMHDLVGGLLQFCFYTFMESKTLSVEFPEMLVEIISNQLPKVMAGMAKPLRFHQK
Text: (§1) luciferase reporter transactivation in HEK293 cells on FLAG-tagged wild-type elephant shark GR

[2] = biological target: T2, FLAG-tagged wild-type elephant shark GR (Callorhinchus milii, UniProt A0A4W3H7L4); settings: MMTV-luc promoter; agonist; 37 C
T2 construct: full-length, N-terminal FLAG tag, transiently expressed in HEK293 cells
Text: as §1

[3] = biological target: T3, FLAG-tagged wild-type elephant shark MR (Callorhinchus milii, UniProt A0A4W3I5J5); settings: MMTV-luc promoter; agonist; 37 C
T3 construct: gene nr3c2; full-length, N-terminal FLAG tag, transiently expressed in HEK293 cells
Text: luciferase reporter transactivation in HEK293 cells on FLAG-tagged wild-type elephant shark MR

T3 sequence (A0A4W3I5J5 entry or part of it): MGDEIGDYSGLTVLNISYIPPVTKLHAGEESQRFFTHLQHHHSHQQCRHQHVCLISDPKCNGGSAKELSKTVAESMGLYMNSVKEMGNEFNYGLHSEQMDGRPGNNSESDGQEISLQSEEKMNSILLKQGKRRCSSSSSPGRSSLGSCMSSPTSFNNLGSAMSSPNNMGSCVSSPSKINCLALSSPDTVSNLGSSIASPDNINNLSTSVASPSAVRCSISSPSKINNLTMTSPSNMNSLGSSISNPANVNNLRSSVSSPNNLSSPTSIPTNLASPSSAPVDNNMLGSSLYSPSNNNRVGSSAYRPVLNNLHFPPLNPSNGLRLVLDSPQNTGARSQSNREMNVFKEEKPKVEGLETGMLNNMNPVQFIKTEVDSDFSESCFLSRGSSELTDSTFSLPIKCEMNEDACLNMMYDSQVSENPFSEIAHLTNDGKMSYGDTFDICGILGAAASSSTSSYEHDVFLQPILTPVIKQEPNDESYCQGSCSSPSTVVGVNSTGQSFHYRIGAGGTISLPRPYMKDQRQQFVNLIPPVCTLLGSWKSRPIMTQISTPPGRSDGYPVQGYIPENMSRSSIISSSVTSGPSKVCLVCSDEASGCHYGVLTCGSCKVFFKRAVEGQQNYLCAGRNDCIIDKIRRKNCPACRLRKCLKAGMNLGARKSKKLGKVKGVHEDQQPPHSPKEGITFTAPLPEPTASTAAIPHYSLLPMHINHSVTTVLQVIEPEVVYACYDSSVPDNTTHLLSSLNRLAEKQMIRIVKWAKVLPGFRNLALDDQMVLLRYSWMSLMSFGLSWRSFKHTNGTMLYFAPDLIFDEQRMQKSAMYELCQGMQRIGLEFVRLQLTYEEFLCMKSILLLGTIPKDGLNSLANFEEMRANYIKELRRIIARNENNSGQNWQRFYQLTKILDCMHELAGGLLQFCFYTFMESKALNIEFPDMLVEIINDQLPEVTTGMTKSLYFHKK

| SMILES | EC50 [1] | EC50 [2] | EC50 [3] |
| --- | --- | --- | --- |
| C[C@]12CC[C@H]3[C@@H](CCC4=CC(=O)CC[C@@]43C)[C@@H]1CC[C@@H]2C(=O)CO [DOC, 11-deoxycorticosterone] | 0.013 µM |  |  |
| C[C@]12C[C@H](O)[C@H]3[C@@H](CCC4=CC(=O)CC[C@@]43C)[C@@H]1CC[C@@H]2C(=O)CO [CORT, Corticosterone] | 0.006 µM |  |  |
| C[C@]12CCC(=O)C=C1CC[C@@H]1[C@@H]2[C@@H](O)C[C@]2(C=O)[C@@H](C(=O)CO)CC[C@@H]12 [Aldo, aldosterone] | 0.0141 µM |  |  |

Next, values leading:

| EC50 [1] | EC50 [2] | EC50 [3] | SMILES |
| --- | --- | --- | --- |
| 0.0252 µM | 0.0139 µM | 0.0005 µM | C[C@]12CCC(=O)C=C1CC[C@@H]1[C@@H]2[C@@H](O)C[C@@]2(C)[C@H]1CC[C@]2(O)C(=O)CO [Cortisol] |
|  |  | 0.00013 µM | C[C@]12CCC(=O)C=C1CC[C@@H]1[C@@H]2CC[C@@]2(C)[C@H]1CC[C@]2(O)C(=O)CO [S, 11-deoxycortisol] |
